Laboratory results as given in patent publication US12558344B2, “Composition for preventing or treating brain-nervous system diseases comprising rita or derivatives thereof” (priority 2019, dated 2026).

Assays:
[1] = system: C57BL/6 mouse subjected to chronic restraint stress; assay: Open field test, anxiety-related behavior in CRS mouse; assay type: in vivo; settings: open field test 20 minutes, 10 mg/kg intraperitoneally, FIG. 3
Experimental: (§1) An 8-week-old male C57BL/6 mouse was subjected to chronic restraint stress (CRS) using a restrainer from 10 AM to 4 PM daily for 7 days. RITA (10 mg/kg) was intraperitoneally injected using a 1-ml syringe at 9:30 AM for 10 days from 3 days before the stress experience. Specifically, to measure anxiety-related behavior, an open field test was performed. The degree of anxiety was measured by observing a staying rate during a staying time in the middle in a square with a size of 40×40 cm^2 for 20 minutes. In addition, to measure spatial memory ability, a Y-Maze test was performed. The degree of spatial memory ability was measured by measuring the rate (arm alteration) entering each passage while freely moving in a Y-shaped maze space composed of three passages for 6 minutes.

[2] = system: hippocampal neural stem cells; assay: Neural stem cell protection in chronic restraint stress (CRS) mouse, SOX2/Ki67 immunohistochemistry of hippocampus; assay type: in vivo; settings: 10 mg/kg intraperitoneally for 10 days, CRS 7 days, FIG. 2
Experimental: An 8-week-old male C57BL/6 mouse was subjected to chronic restraint stress (CRS) using a restrainer from 10 AM to 4 PM daily for 7 days. RITA (10 mg/kg) was intraperitoneally injected using a 1-ml syringe at 9:30 AM for 10 days from 3 days before the stress experience. To confirm the number of hippocampal neural stem cells in the RITA-injected mouse, the control and the stress-experiencing mice were anesthetized by injecting the neuro-anesthetic Zoletil and the muscle anesthetic Rompun to isolate brain tissue. Afterward, the brain tissue was frozen with an optimal cutting temperature compound after fixing the brain with 4% paraformaldehyde (PFA). To perform immunohistochemistry, the frozen brain was cut in the coronal plane to a thickness of 40 μm, and then a neural stem cell indicator, SOX2, and a cell proliferation indicator, Ki67 protein, were labeled with Alexa488 or Alexa555 and stained. The number of fluorescence-expressing cells in the hippocampus of the stained brain was detected using a Confocal 780 microscope (Zeiss), and the result is shown in FIG. 2. As a control, oil, which is a medium in which RITA is dissolved, was injected.

[3] = system: C57BL/6 mouse subjected to chronic restraint stress; assay: Y-Maze test, spatial memory in CRS mouse; assay type: in vivo; settings: Y-Maze test 6 minutes (arm alteration), 10 mg/kg intraperitoneally, FIG. 4
Experimental: as §1

[4] = system: adult hippocampal neural stem cells (HCN cells); assay: Cell death assay (Hoechst 33342/PI) of stress hormone (CORT)-induced death of adult hippocampal neural stem cells; assay type: cell-based, rat; settings: 50 nM RITA (3 h pre-treatment, then with 200 μM CORT), 48 hours, FIG. 1
Experimental: First, adult hippocampal neural stem cells (HCN cells; hereinafter, referred to as “HCN”) were isolated from an 8-week-old female Sprague-Dawley rat (SD rat). Afterward, the isolated hippocampal neural stem cells were incubated using a serum-free medium containing Dulbecco's modified Eagle's medium (DMEM)/F-12 to which N2 and basic fibroblast growth factor (bFGF; PeproTech) were added in a 37° C. incubator. The cells were subcultured every 3 or 4 days. The subcultured neural stem cells were put into a 96-well plate at 1.5×10^5 cells/ml, 50 nM RITA was treated together with 200 μM corticosterone (CORT), and cell death was confirmed after 48 hours. Before CORT treatment, 50 nM RITA was pre-treated for 3 hours and then treated again along with CORT. For cell death assay, the cells were stained with Hoechst 33342 (Invitrogen) and propidium iodide (PI; Sigma) and photographed by a fluorescence microscope (Axiovert 40 CFL; Carl Zeiss), and the percentage of cell death was calculated by the following cell death (%) equation. Cell death (%)=(the number of PI[red]−positive cells/the number of Hoechst [blue]−positive cells)×100

With `OCc1ccc(-c2ccc(-c3ccc(CO)s3)o2)s1` [RITA, 2,5-bis[5-hydroxymethyl-2-thienyl] furan] the “anxiety disorder-related behavior caused by stress experience” value [1] was “prevented”, the “number of cells expressing Ki67 (cell proliferation indicator) decreased by stress” value [2] was “considerably increased compared to the control” and the “number of cells expressing SOX2 (stem cell indicator) decreased by stress” value [2] was “considerably increased compared to the control”. For the same compound, the “spatial memory disability caused by stress experience” value [3] was “prevented” and the “death of neural stem cells caused by a stress hormone” value [4] was “inhibits the death of neural stem cells”.
